Each structure is given as a SMILES string.

The test system of this assay is IL-2 production. Nature of the assay: Inhibition of IL-2 production in PHA-activated Jurkat cells (ELISA). In kind it is cell-based. The conditions noted are these: Homo sapiens, PHA 2.5 μg/mL, 20 hours, IL-2 ELISA. Here is the method: Jurkat cells were placed in a 96 well plate (0.5 million cells per well in 1% FBS medium) then a test compound of this invention was added at different concentrations. After 10 minutes, the cells were activated with PHA (final concentration 2.5 μg/mL) and incubated for 20 hours at 37° C. under CO2. The final volume was 200 μL. Following incubation, the cells were centrifuged and the supernatants were collected and stored at −70° C. prior to assaying for IL-2 production. A commercial ELISA kit (IL-2 Eli-pair, Diaclone Research, Besancon, France) was used to detect production of IL-2, from which dose response curves were obtained. The IC50 value was calculated as the concentration at which 50% of maximum IL-2 production after stimulation was inhibited versus a non-stimulation control.
On the technique in general: In an ELISA, binding on a coated surface is turned into a signal by an enzyme label.
Molecule `COc1ccc2c(c1)nc(C(F)(F)F)n2-c1cnc(NC(=O)c2ccc(OC)c(OC)c2)cn1` [Compound 126, 3,4-Dimethoxy-N-[5-(5-methoxy-2-trifluoromethyl-benzoimidazol-1-yl)-pyrazin-2-yl]-benzamide] returned an IC50 of more than 1 µM.
For `COc1ccc2c(c1)nc(C(F)(F)F)n2-c1cnc(NC(=O)c2ccc([N+](=O)[O-])c(OC)c2)cn1` [Compound 147, 3-Methoxy-N-[5-(5-methoxy-2-trifluoromethyl-benzoimidazol-1-yl)-pyrazin-2-yl]-4-nitro-benzamide] the value was more than 1 µM; for `COc1ccc2c(c1)nc(C(F)(F)F)n2-c1cnc(NC(=O)c2cccc(C)c2)cn1` [Compound 116, N-[5-(5-Methoxy-2-trifluoromethyl-benzoimidazol-1-yl)-pyrazin-2-yl]-3-methyl-benzamide], 0.17 µM; for `COc1ccc2c(c1)nc(C(F)(F)F)n2-c1cnc(NC(=O)c2ccc(C(C)(C)C)cc2)cn1` [Compound 132, 4-tert-Butyl-N-[5-(5-methoxy-2-trifluoromethyl-benzoimidazol-1-yl)-pyrazin-2-yl]-benzamide], more than 1 µM.
For `COc1ccc2c(c1)nc(C(F)(F)F)n2-c1cnc(NC(=O)c2ccc([N+](=O)[O-])cc2F)cn1` [Compound 150, 2-Fluoro-N-[5-(5-methoxy-2-trifluoromethyl-benzoimidazol-1-yl)-pyrazin-2-yl]-4-nitro-benzamide] the value was 0.126 µM; for `COc1cc(OC)cc(C(=O)Nc2cnc(-n3c(C(F)(F)F)nc4cc(OC)ccc43)cn2)c1` [Compound 129, 3,5-Dimethoxy-N-[5-(5-methoxy-2-trifluoromethyl-benzoimidazol-1-yl)-pyrazin-2-yl]-benzamide], more than 1 µM.
For `COc1ccc2c(c1)nc(C(F)(F)F)n2-c1cnc(NC(=O)c2ccc(F)cc2)cn1` [Compound 86, 4-Fluoro-N-[5-(5-methoxy-2-trifluoromethyl-benzoimidazol-1-yl)-pyrazin-2-yl]-benzamide] the value was 0.15 µM; for `COc1ccc2c(c1)nc(C(F)(F)F)n2-c1cnc(NC(=O)c2ccc(SC)cc2)cn1` [Compound 119, N-[5-(5-Methoxy-2-trifluoromethyl-benzoimidazol-1-yl)-pyrazin-2-yl]-4-methylsulfanyl-benzamide], 0.05 µM; for `COc1ccc2c(c1)nc(C(F)(F)F)n2-c1cnc(NC(=O)c2cccc(C(F)(F)F)c2)cn1` [Compound 125, N-[5-(5-Methoxy-2-trifluoromethyl-benzoimidazol-1-yl)-pyrazin-2-yl]-3-trifluoromethyl-benzamide], 0.78 µM.
Molecule `COc1ccc2c(c1)nc(C(F)(F)F)n2-c1cnc(NC(=O)c2cccc(Cl)c2)cn1` [Compound 96, 3-Chloro-N-[5-(5-methoxy-2-trifluoromethyl-benzoimidazol-1-yl)-pyrazin-2-yl]-benzamide] registered an IC50 of 0.091 µM.
For `COc1ccc2c(c1)nc(C(F)(F)F)n2-c1cnc(NC(=O)c2ccc([N+](=O)[O-])cc2)cn1` [Compound 97, N-[5-(5-Methoxy-2-trifluoromethyl-benzoimidazol-1-yl)-pyrazin-2-yl]-4-nitro-benzamide] the value was 0.307 µM; for `COc1ccc2c(c1)nc(C(F)(F)F)n2-c1cnc(NC(=O)c2cccc(C#N)c2)cn1` [Compound 101, 3-Cyano-N-[5-(5-methoxy-2-trifluoromethyl-benzoimidazol-1-yl)-pyrazin-2-yl]-benzamide], 0.096 µM; for `COc1ccc2c(c1)nc(C(F)(F)F)n2-c1cnc(NC(=O)c2cccc([N+](=O)[O-])c2C)cn1` [Compound 135, N-[5-(5-Methoxy-2-trifluoromethyl-benzoimidazol-1-yl)-pyrazin-2-yl]-2-methyl-3-nitro-benzamide], 0.103 µM.
For `COc1ccc2c(c1)nc(C(F)(F)F)n2-c1cnc(NC(=O)c2ccccc2OC)cn1` [Compound 111, 2-Methoxy-N-[5-(5-methoxy-2-trifluoromethyl-benzoimidazol-1-yl)-pyrazin-2-yl]-benzamide] the value was more than 1 µM.

A word on the IC50: it is the concentration needed to halve the response being measured. A low value points to greater potency.

(Values after patent publication US8119643B2, “Benzoimidazolyl-pyrazine compounds for inflammation and immune-related uses” (Synta Pharmaceuticals Corp., priority 2006, dated 2012).)
